Values after ≈ are worked out from the molar mass of the structure shown.
How the values were obtained:
M. hydrocarbonoclasticus = test: Antibacterial activity (growth inhibition, OD600); format: cell-based, Marinobacter hydrocarbonoclasticus DSM 8798; conditions: 24 h
Description: To assess antimicrofouling activity, we selected five marine bacterial species as models: Marinobacter hydrocarbonoclasticus DSM 8798 (ATCC 49840), C. marina DSM 4741, Phaeobacter inhibens DSM 17,395, Pseusooceanicola batsensis DSM 15,984, and Micrococcus luteus DSM 20030 (ATCC 4698) ([Michael et al., 2016]). These strains, sourced from DSMZ (Leibniz Institute DSMZ—German Collection of Microorganisms and Cell Cultures), were cultured in liquid marine broth (Carl Roth GmbH, Karlsruhe, Germany) with agitation at 180 rpm or on agar-supplemented marine broth. Incubation temperatures were set at 28°C for M. hydrocarbonoclasticus and Cobetia marina, 30°C for P. inhibens and P. batsensis, while M. luteus was maintained at 37°C in Brain Heart Infusion broth (BHI, Becton Dickinson, GmbH, Heidelberg, Germany) under similar agitation conditions.
The antibacterial efficacy of compounds (1) and (2) was assessed in 96-well polystyrene flat-bottom microplates (Nunclon Delta Surface, Thermo Scientific, Roskilde, Denmark) following established procedures ([Bauermeister et al., 2019]). In the initial screening, bacterial overnight cultures were diluted to an optical density (OD600nm) of 0.2 and incubated statically at appropriate temperatures. The cultures were treated with the following final concentrations per well: 31.25, 15.60, 7.81, 3.91, 1.95, and 0.98 μg/mL (2-fold serial dilutions) of the compounds, solubilized in DMSO, or left untreated. After 24 h (M. hydrocarbonoclasticus, C. marina) or 48 h (P. batsensis, P. inhibens, M. luteus) incubation, optical density at 600 nm (OD600) was measured using a Molecular Devices Spectra Max 190. Growth inhibition percentages were calculated relatively to untreated bacterial species, using DMSO as a negative control. CuSO4 (0.16 μg/mL), a recognized antifouling agent, was used as positive control. All assays were conducted in triplicate, and the results represent the mean and standard error of the mean (SEM). Statistical analysis was carried out using GraphPad Prism 8.0.2 (San Diego, CA, United States), employing one-way ANOVA followed by Dunnett’s multiple comparisons test against the negative control.

[1] = system: Phaeodactylum tricornutum; test: Algal growth inhibition test (OECD 201, ISO-10253); format: cell-based
Description: The in vivo evaluation of compounds (1) and (2) for acute toxicity was performed towards marine bacterium Aliivibrio fischeri, and planktonic crustacean Daphnia magna. The chronic ecotoxicity tests were evaluated using algae Pseudokirchneriella subcapitata and Phaeodactylum tricornutum.
Freshwater and marine algal growth inhibition was assessed using P. subcapitata and P. tricornutum according to OECD Guideline 201 procedures (“Alga, Growth Inhibition Test”), ISO-8692 (“Water quality–Fresh water algal growth inhibition test with unicellular green algae”) and ISO-10253. Briefly, the algae cells were de-immobilized from algal beads using Matrix dissolving medium (Microbiotests), according to the manufacturer’s instructions, and grown in flasks containing algal culturing medium which was prepared following the OECD Guideline 201 and ISO-8692. Flasks with algae were kept for 7 days under light with orbital agitation. When the algae culture had sufficient cells, as verified by the optical density at 670 nm, these were tested at an initial cell density of 1 × 10^6 cells/mL in algal culturing medium. Madeirone (1) and neomarinone (2) were dissolved in DMSO and tested at the concentrations of 100, 50, 25, 12.5, 6.25, 3.13, and 1.56 μg/mL. The algae were cultured in microplates in triplicate and were kept for 4 days under light with orbital agitation. […] Each experiment was performed in triplicate and the results of two independent experiments with <10% SD are presented. Growth inhibition calculations were performed using cell numbers (biomass), as determined by a calibration line. Potassium dichromate (K2Cr2O7) was used as a positive control.

[2] = system: M. galloprovincialis plantigrade larvae; test: Mussel plantigrade larvae anti-settlement bioassay; format: in vivo, Mytilus galloprovincialis; conditions: 15 h acute exposure, 95% confidence limits in brackets; for EC50: Mytilus galloprovincialis, 15 h, read-out: EC50 [Conf. Limits] anti-settlement
Description: The in vivo antimacrofouling activity of compounds (1) and (2) was evaluated against mussel M. galloprovincialis adhesive larvae (plantigrades) in an acute bioassay. Juvenile mussel aggregates were harvested from the intertidal rocky shore during low spring tides at Memória beach, Matosinhos, Portugal. In the laboratory, precisely before the bioassays, mussel plantigrade larvae were meticulously screened and isolated from the juvenile aggregates using a binocular microscope (Olympus SZX2-ILLT, Hamburg, Germany). The isolated larvae were then washed with filtered seawater to eliminate organic debris, and competent plantigrade larvae, characterized by foot exploratory behavior, were selected for the exposure bioassays, following established protocols ([Almeida et al., 2017]; [Almeida et al., 2020]; [Antunes et al., 2019]; [Mabrouk et al., 2020]). Plantigrades were exposed in 24-well polystyrene plates for 15 h in darkness at 18°C. DMSO served as the solvent for the testing compounds in stock and working solutions. The DMSO concentration in the tested solutions was consistently maintained at 0.1%. Each condition was replicated in four wells, with five larvae per well. Two negative controls, one with ultra-pure water and other with DMSO were included in all bioassays, along with a positive control using 0.16 μg/mL CuSO4, as a reference antifouling agent. The anti-settlement bioactivity was assessed based on the presence or absence of fixed byssal threads produced by each individual larva for all tested conditions. […] EC50 values for each compound were calculated using Probit regression analysis. Significance was considered at p < 0.01, and 95% lower and upper confidence limits (95% LCL; UCL). The software IBM SPSS Statistics 28 was used for statistical analysis. The therapeutic ratio (LC50/EC50) was employed to evaluate the effectiveness versus the toxicity of the compounds ([Qian et al., 2009]; [Almeida and Vasconcelos, 2015]).

Structure (SMILES)	Growth inhibition (%) M. hydrocarbonoclasticus (M. hydrocarbonoclasticus; 0.98 µg/mL)	Growth inhibition (%) M. hydrocarbonoclasticus (M. hydrocarbonoclasticus; 1.95 µg/mL)	Growth inhibition (%) M. hydrocarbonoclasticus (M. hydrocarbonoclasticus; 3.91 µg/mL)	Growth inhibition (%) M. hydrocarbonoclasticus (M. hydrocarbonoclasticus; 7.81 µg/mL)	Growth inhibition (%) M. hydrocarbonoclasticus (M. hydrocarbonoclasticus; 15.60 µg/mL)	inhibition at 31.25 µg/mL (M. hydrocarbonoclasticus; Marinobacter nauticus, 31.25 µg/mL) [%]	Inhibition (%) P. tricornutum (growth) ([1]; 12.5 µg/mL) [%]	Inhibition (%) P. tricornutum (growth) ([1]; 25 µg/mL) [%]	Inhibition (%) P. tricornutum (growth) ([1]; 50 µg/mL) [%]	Inhibition (%) P. tricornutum (growth) ([1]; 100 µg/mL) [%]	EC50 [Conf. Limits] anti-settlement [2]	EC50 [2] [mg/L]	Growth inhibition (%) M. hydrocarbonoclasticus (M. hydrocarbonoclasticus; 31.25 µg/mL)
CC1=CCC[C@@H](C)[C@]1(C)CC[C@@]1(C)c2c(O)cc3c(c2O[C@@H]1C)C(=O)C(C)=C(O)C3=O [compound 2, neomarinone]	N.I.	N.I.	N.I.	N.I.	N.I.	4.2 ± 0.8	26.5	38.5	40.8	77.7	0.119 (0.015–0.253) µg/mL	0.12 (≈ 0.283 µM)	–
CC1=CCC[C@@H](C)[C@]1(C)CC[C@@]1(C)c2c(O)cc3c(c2O[C@@H]1C)C(=O)C=C(CO)C3=O (relative stereo) [compound 1, madeirone]	N.I.	N.I.	N.I.	N.I.	N.I.	–	–	45.7	58.0	86.9	1.755 (1.308–5.492) µg/mL	1.76 (≈ 4.15 µM)	N.I.

Reference: article PMC11306024, “Novel metabolite madeirone and neomarinone extracted from Streptomyces aculeoletus as marine antibiofilm and antifouling agents” (Frontiers in Chemistry, 2024)
